Test results: paper PMC3201940, “A Robust and Rapid Method of Producing Soluble, Stable, and Functional G-Protein Coupled Receptors” (PLoS ONE, 2011)

Target: T1, hVN1R1 (Homo sapiens, UniProt Q9GZP7)
T1 construct: gene VN1R1
T1 sequence (Q9GZP7 1-353): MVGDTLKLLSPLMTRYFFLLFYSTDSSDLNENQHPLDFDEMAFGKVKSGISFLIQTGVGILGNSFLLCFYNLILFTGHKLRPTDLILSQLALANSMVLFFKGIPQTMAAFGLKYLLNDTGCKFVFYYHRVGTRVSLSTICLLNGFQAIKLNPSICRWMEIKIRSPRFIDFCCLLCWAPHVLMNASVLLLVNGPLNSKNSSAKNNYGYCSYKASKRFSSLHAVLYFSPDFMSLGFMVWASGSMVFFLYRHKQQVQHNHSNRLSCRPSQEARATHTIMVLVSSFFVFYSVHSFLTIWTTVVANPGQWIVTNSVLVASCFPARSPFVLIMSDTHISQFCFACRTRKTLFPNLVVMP
Experiment: label-free microscale thermophoresis (tryptophan fluorescence), purified receptor, heat-denatured control
Type: binding

**Q.** Which EC50 does the source give for `C=C(C)C1CC=C(C)C(O)C1` (mixture of isomers) [carveol] here?
**A.** 3.5 ± 0.7 µM
